According to ChEMBL document CHEMBL3727375, “Antiproliferative 1,2,3-thiadiazole compounds” (2007):
Active and inactive are the calls of the source. No cut-off for these calls is given here.

Key:
Chorioallantoic membrane = assay: Antiangiogenic activity in fertilized chicken egg chorioallantoic membrane assessed as inhibition of blood vessel growth at 50 uM incubated for 2 days by dissecting microscopy relative to control; type: functional, tissue-based; details: Gallus gallus
[1] = Induction of apoptosis in rat IEC-18-13 cells assessed as healthy cells at 5 uM after 24 hrs by mitosensor dye-based fluorescence microscopy (reference value: 75%); type: functional
Lewis lung carcinoma = assay: Antitumor activity against mouse LLC allografted in ip dosed mouse assessed as tumor growth inhibition administered daily; type: functional, organism-based
[2] = Induction of apoptosis in rat IEC-18-13 cells assessed as apoptotic cells at 5 uM after 24 hrs by mitosensor dye-based fluorescence microscopy (reference value: 25%); type: functional

| SMILES | growth inhibition (GI) (Chorioallantoic membrane) [%] | Activity [1] [%] | TGI (Lewis lung carcinoma) | Activity [2] [%] |
| --- | --- | --- | --- | --- |
| NC(=O)c1nnsc1Nc1cccc2ccccc12 | 100 |  |  |  |
| NC(=O)c1nnsc1Nc1ccccc1 |  | 22 | Active | 78 |
